Measured values taken from patent US20140249143A1, “Compounds And Methods For Enhancing Innate Immune Responses” (GlaxoSmithKline LLC, priority 2011, published 2014).

Key:
[1] = tested on: reconstructed human epidermis (RHE) keratinocytes; assay: JAK/STAT induction in reconstructed human epidermis (western blot, real-time PCR); assay type: cell-based; details: 10 μM (IFN-alpha 100 U/mL), 6 and 72 hrs
Description: First, reconstructed human epidermis (“RHE”) consisting of cultured human keratinocyte cells were incubated in triplicate with media containing either the media alone, media+0.1% DMSO, media containing 10 μM of several putative JAK/STAT activator compounds described herein in Tables 1 and 2 (Example 1, Example 2, Example 11, and compound no. 89 (as a negative control)), or media containing 100 U/mL of a positive control Interferon-alpha (IFN-alpha) recombinant protein at 37° C. in a humidified atmosphere containing 5% CO2, for 6 and 72 hours.
At the end of the incubation period, the RHE tissues were cut into two sections. One section was ¼ of the total size and the second section was […].

[2] = tested on: interferon stimulated genes (ISGs); assay: Expression of interferon stimulated genes in HCV replicon cells (real time RT-PCR); assay type: cell-based
Source text: The up-regulation of interferon stimulated genes upon treatment with Example 1 was monitored by quantitative real time RT-PCR using specific primers for each gene, as shown in FIG. 3. […] Total RNA was isolated using RNeasy 96 kit (Qiagen) and converted to cDNA using High Capacity cDNA reverse transcription kit (Applied Biosystems). For real time PCR, the cDNA was used for PCR reactions using TaqMan Fast Universal PCR master mix (Applied Biosystems) and specific primers (Applied Biosystems). As housekeeping genes, actin and GAPDH were used for normalization. Data was calculated by the ΔΔCt method and fold change determined compared to DMSO-treated control samples.

[3] = tested on: IFN mediated JAK/STAT pathway (ISG54 promoter); assay: Activation of the JAK/STAT pathway in HEKBlue IFN-α/β cells (SEAP); assay type: cell-based; details: HEK-Blue; 24 h, QUANTI-Blue, OD 650 nm; read-out: EC50 of activation of the JAK/STAT pathway (secreted alkaline phosphatase)
Description: The cells were incubated for 24 h in the presence of several treatments (Example 1, IFNα, and IFNλ3) and the supernatants were measured for the amount of the secreted alkaline phosphatase using QUANTI-Blue™ (InvivoGen) at the optical density of 650 nm. […] The activation of the pathway by IFNα (PBL) and IFNλ3 (R&D Systems Inc.) are shown as positive controls.

[4] = tested on: HCV replication in 1b HCV replicon cells; assay: siRNA knockdown of JAK/STAT pathway factors in 1b HCV replicon cells; assay type: cell-based, Hepatitis C virus; details: 2 μM, 30 h, 50 nM siRNA
Description: 50 nM of siRNA against each gene (Dharmacon, on-target SMART pool: L-020209-00-0005 (IFNAR1), L-015411-00-0005 (IFNAR2), L-007981-00-0005 (IL28RA), L-007926-00-0005 (IL10RB), L-011-57-00-0005(IFNGR1), L-012713-00-0005 (IFNGR2), L-003145-00-0005 (JAK1), L-003146-00-0005 (JAK2), L-003182-00-0005 (Tyk2), L-003147-00-0 005 (JAK3), L-003543-00-0005 (STAT1), L-012064-00-0005 (STAT2)) was transfected in the 1b HCV replicon cells using lipofectamine RNAiMax™ (Invitrogen) according to the manufacturer's protocol. A scrambled irrelevant smart pool control siRNA was included as a control (IRR). After 3 days post transfection, the cells were treated with DMSO, IFNα (5 U/ml), IFNγ (100 U/ml), and Example 1 (2 μM) in triplicate for 30 h. The cells were harvested with Bright-Glo (Promega) and the HCV replication was measured by luminescence. […] To measure the efficiency of the knockdown, total RNA was harvested from the siRNA-transfected cells at day 3 post transfection and analyzed by real time RT-PCR.

[5] = tested on: ISG56 (Interferon-Stimulated Gene 56) promoter ISRE; assay: ISG56 luciferase reporter assay in HEK 293 cells; assay type: cell-based; details: Homo sapiens, HEK293; HEK 293 reporter, 24 hours; 100% = small molecule control test compound; read-out: ISG56 (Average Max Response) %
Method in brief: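 HEK 293 cells stably carrying a firefly luciferase reporter driven by the ISG56 promoter ISRE were incubated with compounds (11-point, 3-fold dilutions) for 24 h at 37 °C, 10,000 cells/well. Steady-Glo luminescence was normalized to DMSO and control-agonist wells, and pEC50 came from a four-parameter fit.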

## FC(F)(F)c1cc(C(F)(F)F)c2ccc3nc(-c4nnco4)cn3c2n1 [Compound 1, 2-[2,4-bis(trifluoromethyl)imidazo[1,2-a]1,8-naphthyridin-8-yl]-1,3,4-oxadiazole]
[1]
  Stat1 phosphorylation (western blot): Stat1 phosphorylation
[2]; 2 μM
  induction of IFNα and β mRNA (IFNA1, IFNA2, IFNB1): no induction
[2]; 2 μM, time course 1.5-48 h
  induction of ISGs (ISG15, Mx1, OAS1, OAS2, CXCL10, IFIH1, STAT2): induction of various known ISGs
[2]; Example 1 2 μM, IFNα 100 U/ml
  time of maximum induction of ISGs: 8 h
[3]
  EC50: ~1000 nM
[4]
  antiviral activity after knockdown of IFNAR2, JAK1, STAT1, or STAT2: affected the antiviral activity
  antiviral activity after knockdown of JAK1: fully abolished
  antiviral activity after knockdown of other Janus kinases (JAKs): did not show any effect
[5]
  Emax: 302%
